Bounds are passed on as bounds.

One assay addresses T1, Aurora-B(h) (Homo sapiens, UniProt Q96GD4).
T1 construct: purchased Millipore (Kinase Profiler Service)
Description: Kinase Profiler Service Assay, Aurora-B. Format: biochemical. Conditions: at 100 nM. As to the method:
(§1) Selected kinase binding affinities were determined using Kinase Profiler™ Service Assay Protocols (Millipore, V53.0).

In the next assay the test system is MV4-11 cells. Put plainly: Human MV4-11 biphenotypic B myelomonocytic leukemia cell survival assay. The conditions noted are these: cell survival at 72h, Cell Titer-Glo. In kind it is cell-based. As to the method:
Human MV4-11 Biphenotypic B Myelomonocytic Leukemia Cell Survival Assay
Biphenotypic B myelomonocytic leukemia MV4-11 cells (ATCC CRL-9591) were cultured in suspension at 37° C., 5% CO2 in complete medium (RPMI supplemented with 10% FBS, 1% penicillin/streptomycin). One day prior to treatment, cells per seeded in 96-well plates at 8000 cells/well in complete medium. The following day, triplicate wells were treated with compound curves of 100, 1000 or 10,000 nM starting concentration according to compound potency. Cell survival was measured 72h later by Cell Titer-Glo Luminescent Assay (Promega). Luminescence was read using a Tecan Infinite F200 microplate reader. EC50 values (50% survival in the presence of compound as compared to vehicle treated controls) were calculated from non-linear fit dose response compound curves using CambridgeSoft BioAssay software (Perkin Elmer).

Another assay concerns the target T2, FLT4 (Homo sapiens, UniProt P35916).
T2 construct: purchased Millipore (Kinase Profiler Service)
Put plainly: Kinase Profiler Service Assay, FLT4. In kind it is biochemical. Conditions: at 100 nM. The method, then: as §1

In assay [1] the test system is M-NFS-60 M-CSF-dependent myeloid leukemia cells. Description: Murine M-CSF-dependent M-NFS-60 cell survival assay. Format: cell-based. Conditions: Mus musculus; cell survival at 72 hours, 20 ng/ml M-CSF, Cell Titer-Glo. As to the method:
Cellular Assays: Murine M-CSF-Dependent M-NFS-60 Cell Survival Assay
Murine M-NFS-60 M-CSF-dependent myeloid leukemia cells were purchased from ATCC (CRL-1838). Cells were routinely cultured at 37° C., 5% CO2 in complete medium (RPMI supplemented with 10% FBS, 1% penicillin/streptomycin, 50 uM beta mercaptoethanol) containing 30 ng/ml recombinant murine M-CSF (Peprotech 315-02). For survival assays, cells were transferred to depleted medium (complete medium depleted of M-CSF) for 24 hours prior to initiation of each experiment. M-CSF-starved cells were harvested and re-suspended in complete medium containing 20 ng/ml M-CSF. Cells were seeded at 25,000 cells/well in 96-well plates and incubated for 1 hour at 37° C., 5% CO2. Cells were treated with 1 uM or 10 uM compound curves in triplicate and cell survival was measured 72 hours later by Cell Titer-Glo Luminescent Assay (Promega). Luminescence was read using a Tecan Infinite F200 microplate reader. EC50 values (50% survival in the presence of compound as compared to vehicle treated controls) were calculated from non-linear fit dose response compound curves using GraphPad Prism Software.

In the next assay the target is T3, PDGFR-b(h) (Homo sapiens, UniProt P09619).
T3 construct: purchased Millipore (Kinase Profiler Service)
Put plainly: Kinase Profiler Service Assay, PDGFR-b. In kind it is biochemical. The conditions noted are these: at 100 nM. The method, then:
as §1

For the next assay, the target named is T4, KDR(h) (Homo sapiens, UniProt P35968).
T4 construct: purchased Millipore (Kinase Profiler Service)
T4 sequence (P35968 20-1356): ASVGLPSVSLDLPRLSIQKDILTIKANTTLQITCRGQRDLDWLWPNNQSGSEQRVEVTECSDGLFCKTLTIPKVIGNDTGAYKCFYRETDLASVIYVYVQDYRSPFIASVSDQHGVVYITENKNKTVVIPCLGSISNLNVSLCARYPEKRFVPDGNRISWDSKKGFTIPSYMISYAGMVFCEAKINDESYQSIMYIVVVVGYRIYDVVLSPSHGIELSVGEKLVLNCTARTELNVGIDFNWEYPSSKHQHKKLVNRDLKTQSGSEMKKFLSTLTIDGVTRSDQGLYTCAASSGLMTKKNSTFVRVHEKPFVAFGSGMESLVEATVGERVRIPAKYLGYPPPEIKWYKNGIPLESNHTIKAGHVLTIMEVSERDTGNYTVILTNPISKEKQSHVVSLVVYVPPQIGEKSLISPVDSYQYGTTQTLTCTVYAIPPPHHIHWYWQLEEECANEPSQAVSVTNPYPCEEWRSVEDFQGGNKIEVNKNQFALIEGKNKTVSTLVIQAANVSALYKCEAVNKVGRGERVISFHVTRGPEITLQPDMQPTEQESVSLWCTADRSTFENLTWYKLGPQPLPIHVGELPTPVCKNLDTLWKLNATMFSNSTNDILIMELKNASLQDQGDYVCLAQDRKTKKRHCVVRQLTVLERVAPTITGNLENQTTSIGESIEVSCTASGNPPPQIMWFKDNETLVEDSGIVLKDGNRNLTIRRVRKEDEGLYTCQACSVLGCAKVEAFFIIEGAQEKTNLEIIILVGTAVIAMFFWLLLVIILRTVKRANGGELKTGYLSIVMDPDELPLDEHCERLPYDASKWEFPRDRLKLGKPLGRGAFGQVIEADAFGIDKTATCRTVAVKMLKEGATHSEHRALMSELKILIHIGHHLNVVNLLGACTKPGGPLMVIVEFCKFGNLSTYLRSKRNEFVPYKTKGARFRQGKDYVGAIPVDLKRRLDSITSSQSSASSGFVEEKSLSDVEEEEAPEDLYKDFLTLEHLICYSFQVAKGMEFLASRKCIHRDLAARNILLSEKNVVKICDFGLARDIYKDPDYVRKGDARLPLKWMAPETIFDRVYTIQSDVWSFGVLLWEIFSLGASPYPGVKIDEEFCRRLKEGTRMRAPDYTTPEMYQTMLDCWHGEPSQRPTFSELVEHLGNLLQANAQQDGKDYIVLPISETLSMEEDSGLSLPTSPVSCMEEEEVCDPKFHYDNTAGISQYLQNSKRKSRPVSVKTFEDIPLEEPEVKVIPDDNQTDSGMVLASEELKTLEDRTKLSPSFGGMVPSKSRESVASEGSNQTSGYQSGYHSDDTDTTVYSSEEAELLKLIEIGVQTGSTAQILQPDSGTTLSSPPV
Put plainly: Kinase Profiler Service Assay, KDR. In kind it is biochemical. Conditions: at 100 nM. The method, then: as §1

Another assay concerns the target T5, FGFR1 (Homo sapiens, UniProt P11362).
T5 construct: purchased Millipore (Kinase Profiler Service)
Put plainly: Kinase Profiler Service Assay, FGFR1. In kind it is biochemical. Conditions: at 100 nM. As to the method:
as §1

Assay [2] has as its target T6, recombinant human colony stimulating factor 1 receptor (FMS) (Homo sapiens, UniProt P07333).
T6 construct: containing the catalytic domain (amino acids 538-910); His tag; purchased Invitrogen; host or cells: insect cells
T6 sequence (P07333 538-910): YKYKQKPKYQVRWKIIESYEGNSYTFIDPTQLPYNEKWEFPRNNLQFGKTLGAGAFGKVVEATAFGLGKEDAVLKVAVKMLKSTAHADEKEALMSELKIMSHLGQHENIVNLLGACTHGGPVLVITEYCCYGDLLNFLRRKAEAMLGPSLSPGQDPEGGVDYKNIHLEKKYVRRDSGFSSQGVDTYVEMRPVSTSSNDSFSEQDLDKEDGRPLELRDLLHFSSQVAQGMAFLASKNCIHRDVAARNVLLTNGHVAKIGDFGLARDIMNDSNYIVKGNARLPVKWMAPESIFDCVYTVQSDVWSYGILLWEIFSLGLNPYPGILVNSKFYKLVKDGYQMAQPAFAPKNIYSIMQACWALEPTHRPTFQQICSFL
Put plainly: Biochemical cFMS (CSF1R) fluorescence polarization kinase assay. Conditions: 10 μM ATP, 100 μM substrate, 60 minutes. As to the method: Biochemical cFMS (CSF1R) Assay:
Fluorescence polarization-based kinase biochemical assays were performed in 384 well-plate format using histidine tagged recombinant human colony stimulating factor 1 receptor (FMS) supplied from Invitrogen™ (containing the catalytic domain (amino acids 538-910), expressed in insect cells and activated in vitro via auto phosphorylation) and a modified protocol of the KinEASE™ FP Fluorescein Green Assay supplied from Millipore™.
Kinase reactions were performed in 384 well plate format at room temperature for 60 minutes in presence of 100 μM substrate, 10 μM ATP and variable test article concentrations. The reaction was stopped with EDTA/KinEASE™ detection reagents and the polarization measured on a Tecan 500 instrument. From the dose-response curve obtained, the IC50 was estimated using Graph pad Prisms® using a non linear fit curve.

A further assay has as its target T7, Tie2 (Homo sapiens, UniProt Q02763).
T7 construct: purchased Millipore (Kinase Profiler Service)
Put plainly: Kinase Profiler Service Assay, Tie2. Format: biochemical. Conditions: at 100 nM. The method, then:
as §1

In another assay the target is T8, cFMS(h) (Homo sapiens, UniProt P07333).
T8 construct: purchased Millipore (Kinase Profiler Service)
T8 sequence (P07333 20-972): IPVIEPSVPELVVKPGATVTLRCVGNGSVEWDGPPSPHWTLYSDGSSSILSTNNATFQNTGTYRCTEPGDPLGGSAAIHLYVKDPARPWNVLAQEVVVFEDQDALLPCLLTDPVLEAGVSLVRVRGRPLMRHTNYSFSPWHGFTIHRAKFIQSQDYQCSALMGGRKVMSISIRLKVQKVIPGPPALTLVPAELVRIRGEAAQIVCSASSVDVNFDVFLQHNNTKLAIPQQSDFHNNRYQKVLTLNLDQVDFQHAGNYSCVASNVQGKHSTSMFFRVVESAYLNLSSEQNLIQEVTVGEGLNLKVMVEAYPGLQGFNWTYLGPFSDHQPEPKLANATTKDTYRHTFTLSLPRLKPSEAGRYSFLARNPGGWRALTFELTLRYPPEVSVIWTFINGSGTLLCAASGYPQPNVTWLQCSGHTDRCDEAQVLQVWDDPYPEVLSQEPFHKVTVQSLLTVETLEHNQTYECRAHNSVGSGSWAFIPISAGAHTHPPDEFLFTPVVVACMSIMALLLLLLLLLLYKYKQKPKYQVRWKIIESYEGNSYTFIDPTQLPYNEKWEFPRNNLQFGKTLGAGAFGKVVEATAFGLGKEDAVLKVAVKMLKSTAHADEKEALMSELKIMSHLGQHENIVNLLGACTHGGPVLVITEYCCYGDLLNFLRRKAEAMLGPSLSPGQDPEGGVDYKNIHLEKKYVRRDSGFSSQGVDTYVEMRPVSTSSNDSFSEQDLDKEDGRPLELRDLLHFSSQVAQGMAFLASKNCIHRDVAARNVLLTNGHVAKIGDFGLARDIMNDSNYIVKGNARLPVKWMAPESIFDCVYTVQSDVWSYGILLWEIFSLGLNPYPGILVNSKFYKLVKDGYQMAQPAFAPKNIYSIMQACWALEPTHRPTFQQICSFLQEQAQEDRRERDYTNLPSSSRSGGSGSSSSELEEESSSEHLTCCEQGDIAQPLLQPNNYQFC
Description: Kinase Profiler Service Assay, cFMS. In kind it is biochemical. Conditions: at 100 nM. The method, then:
as §1

Another assay addresses T9, Flt3 (h) (Homo sapiens, UniProt P36888).
T9 construct: purchased Millipore (Kinase Profiler Service)
T9 sequence (P36888 27-993): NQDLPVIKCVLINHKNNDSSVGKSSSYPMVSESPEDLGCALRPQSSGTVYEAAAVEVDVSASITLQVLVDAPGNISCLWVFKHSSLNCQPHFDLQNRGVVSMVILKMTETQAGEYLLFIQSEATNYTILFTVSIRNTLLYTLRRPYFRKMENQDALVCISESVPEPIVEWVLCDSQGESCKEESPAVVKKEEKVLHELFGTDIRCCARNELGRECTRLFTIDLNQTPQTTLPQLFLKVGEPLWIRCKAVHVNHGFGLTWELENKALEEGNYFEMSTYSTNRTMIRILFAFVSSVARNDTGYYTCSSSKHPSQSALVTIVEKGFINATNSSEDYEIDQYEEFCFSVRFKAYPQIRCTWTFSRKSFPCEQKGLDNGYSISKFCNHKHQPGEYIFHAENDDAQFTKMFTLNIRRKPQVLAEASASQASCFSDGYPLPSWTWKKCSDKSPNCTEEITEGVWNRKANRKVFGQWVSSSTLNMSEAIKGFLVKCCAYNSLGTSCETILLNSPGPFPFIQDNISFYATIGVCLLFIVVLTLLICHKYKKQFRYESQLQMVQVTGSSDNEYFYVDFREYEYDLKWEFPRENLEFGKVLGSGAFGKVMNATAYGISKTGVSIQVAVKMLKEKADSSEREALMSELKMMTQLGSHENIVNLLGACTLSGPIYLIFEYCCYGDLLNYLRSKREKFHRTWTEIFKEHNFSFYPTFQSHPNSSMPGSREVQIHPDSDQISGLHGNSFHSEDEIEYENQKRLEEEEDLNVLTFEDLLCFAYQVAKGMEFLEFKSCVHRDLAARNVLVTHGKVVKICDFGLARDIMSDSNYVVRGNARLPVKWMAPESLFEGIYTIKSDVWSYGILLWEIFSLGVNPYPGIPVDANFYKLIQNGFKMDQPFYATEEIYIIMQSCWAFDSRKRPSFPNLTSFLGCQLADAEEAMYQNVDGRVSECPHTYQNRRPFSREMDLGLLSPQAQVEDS
Put plainly: Kinase Profiler Service Assay, Flt3. In kind it is biochemical. Conditions: at 100 nM. As to the method:
as §1

The next assay deals with 216 other kinases. Description: Kinase Profiler Service Assay, selectivity panel. The conditions noted are these: at 300 nM. In kind it is biochemical. As to the method:
as §1

The target of the next assay is T10, EphA2 (Homo sapiens, UniProt P29317).
T10 construct: purchased Millipore (Kinase Profiler Service)
Put plainly: Kinase Profiler Service Assay, EphA2. Format: biochemical. Conditions: at 100 nM. As to the method:
as §1

T5 sequence (P11362 22-822): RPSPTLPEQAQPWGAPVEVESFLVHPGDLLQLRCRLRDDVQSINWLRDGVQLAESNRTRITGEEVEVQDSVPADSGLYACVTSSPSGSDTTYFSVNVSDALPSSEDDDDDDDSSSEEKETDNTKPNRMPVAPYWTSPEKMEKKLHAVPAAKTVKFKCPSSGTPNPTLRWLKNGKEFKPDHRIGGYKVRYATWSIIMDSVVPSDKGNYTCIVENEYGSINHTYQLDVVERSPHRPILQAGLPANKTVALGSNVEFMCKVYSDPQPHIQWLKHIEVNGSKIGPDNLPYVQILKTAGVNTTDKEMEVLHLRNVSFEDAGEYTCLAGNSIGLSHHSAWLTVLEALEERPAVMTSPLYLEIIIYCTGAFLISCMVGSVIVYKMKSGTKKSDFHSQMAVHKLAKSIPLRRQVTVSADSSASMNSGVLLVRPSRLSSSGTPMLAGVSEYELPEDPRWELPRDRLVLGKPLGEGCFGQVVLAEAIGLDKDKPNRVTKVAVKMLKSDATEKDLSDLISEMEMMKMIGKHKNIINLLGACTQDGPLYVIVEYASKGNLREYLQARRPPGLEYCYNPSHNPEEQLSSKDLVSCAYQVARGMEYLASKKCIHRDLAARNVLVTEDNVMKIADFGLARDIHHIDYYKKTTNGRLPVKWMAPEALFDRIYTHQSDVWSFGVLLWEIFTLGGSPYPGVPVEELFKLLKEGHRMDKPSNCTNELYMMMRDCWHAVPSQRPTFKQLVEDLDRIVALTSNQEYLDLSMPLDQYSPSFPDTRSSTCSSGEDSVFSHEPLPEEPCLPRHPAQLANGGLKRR
T2 sequence (P35916 25-1363): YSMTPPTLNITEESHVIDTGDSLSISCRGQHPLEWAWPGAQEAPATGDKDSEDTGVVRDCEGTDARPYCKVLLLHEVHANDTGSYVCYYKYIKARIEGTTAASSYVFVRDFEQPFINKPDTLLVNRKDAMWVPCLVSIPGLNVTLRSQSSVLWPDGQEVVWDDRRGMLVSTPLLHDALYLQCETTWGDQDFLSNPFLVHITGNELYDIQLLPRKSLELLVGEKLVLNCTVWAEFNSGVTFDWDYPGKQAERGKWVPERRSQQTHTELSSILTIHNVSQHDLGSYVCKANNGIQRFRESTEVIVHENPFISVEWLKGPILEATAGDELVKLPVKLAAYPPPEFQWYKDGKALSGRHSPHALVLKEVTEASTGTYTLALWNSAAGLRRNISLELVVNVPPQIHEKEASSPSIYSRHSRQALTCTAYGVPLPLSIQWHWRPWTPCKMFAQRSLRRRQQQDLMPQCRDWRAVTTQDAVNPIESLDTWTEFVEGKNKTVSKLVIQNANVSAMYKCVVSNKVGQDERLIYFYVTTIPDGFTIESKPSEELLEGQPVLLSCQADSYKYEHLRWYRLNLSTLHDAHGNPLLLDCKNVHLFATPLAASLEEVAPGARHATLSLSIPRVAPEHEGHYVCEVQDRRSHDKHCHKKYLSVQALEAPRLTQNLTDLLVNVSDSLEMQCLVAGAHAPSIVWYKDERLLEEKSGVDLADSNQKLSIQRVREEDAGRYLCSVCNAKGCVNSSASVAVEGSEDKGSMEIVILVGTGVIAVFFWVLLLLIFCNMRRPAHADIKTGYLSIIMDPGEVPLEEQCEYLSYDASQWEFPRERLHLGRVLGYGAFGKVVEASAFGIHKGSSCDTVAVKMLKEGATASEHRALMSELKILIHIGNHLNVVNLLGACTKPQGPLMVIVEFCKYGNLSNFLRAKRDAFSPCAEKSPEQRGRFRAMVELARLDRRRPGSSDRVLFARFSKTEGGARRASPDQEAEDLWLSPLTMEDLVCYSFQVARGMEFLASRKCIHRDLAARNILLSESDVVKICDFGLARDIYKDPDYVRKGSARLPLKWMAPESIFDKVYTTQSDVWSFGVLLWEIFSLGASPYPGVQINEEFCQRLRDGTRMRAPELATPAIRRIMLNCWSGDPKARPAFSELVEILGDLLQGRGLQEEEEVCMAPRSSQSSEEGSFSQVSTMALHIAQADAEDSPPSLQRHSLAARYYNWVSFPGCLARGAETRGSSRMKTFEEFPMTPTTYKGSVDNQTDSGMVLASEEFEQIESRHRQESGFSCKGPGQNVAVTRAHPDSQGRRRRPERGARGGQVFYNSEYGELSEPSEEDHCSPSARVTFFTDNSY
T1 sequence (Q96GD4 whole entry): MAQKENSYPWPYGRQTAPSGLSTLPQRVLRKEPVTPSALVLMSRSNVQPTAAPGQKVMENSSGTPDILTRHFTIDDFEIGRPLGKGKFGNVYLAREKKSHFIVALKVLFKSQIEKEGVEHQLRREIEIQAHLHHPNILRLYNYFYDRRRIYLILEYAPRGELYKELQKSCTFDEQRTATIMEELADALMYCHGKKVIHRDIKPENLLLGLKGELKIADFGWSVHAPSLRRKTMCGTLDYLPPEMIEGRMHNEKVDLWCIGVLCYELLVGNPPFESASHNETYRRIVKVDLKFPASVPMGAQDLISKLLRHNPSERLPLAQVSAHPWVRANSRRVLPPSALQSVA

`Nc1ncnc2c3c(n(-c4ccc(NC(=O)Nc5ccc(F)cc5)cc4)c12)CCC3` [Compound 14]: the “inhibition of Aurora-B” value at Aurora-B(h) is “inhibits”. Besides, the EC50 (in the assay with MV4-11 cells; in assay [1]) was under 100 nM throughout. The “inhibition of FLT4” value against FLT4 is “inhibits”. The “inhibition of PDGFR-b” value against PDGFR-b(h) is “inhibits”. For the same compound, at KDR(h), the “inhibition of KDR” value is on record as “inhibits”. Moreover, the “inhibition of FGFR1” value at FGFR1 is “inhibits”. In addition, in assay [2], the IC50 fell in the range of 100 to 1000 nM. The “inhibition of Tie2” value against Tie2 is given as “inhibits”. Moreover, at cFMS(h), the “inhibition of cFMS” value was “inhibits”. Further, the “inhibition of Flt3” value on Flt3 (h) is reported as “inhibits”.
As for `Nc1ncnc2c3c(n(-c4ccc(NC(=O)Nc5cc(C(F)(F)F)ccc5F)cc4)c12)CCC3` [Compound 44], the EC50 in the assay on MV4-11 cells was under 100 nM; in assay [1] it was 100 to 1000 nM. Moreover, in the assay on 216 other kinases, the “inhibition of 216 other kinases (selectivity)” value was at most 20%. For the same compound, the “inhibition of KDR” value on KDR(h) is reported as “inhibits”. In addition, the “inhibition of EphA2” value against EphA2 was “inhibits”. Further, the “inhibition of FGFR1” value against FGFR1 was “inhibits”. In [2], the IC50 lay in the range of 100 to 1000 nM. Besides, the “inhibition of cFMS” value against cFMS(h) is reported as “inhibits”. The “inhibition of Flt3” value on Flt3 (h) is recorded as “inhibits”.
For the compound `Cc1ccc(F)c(NC(=O)Nc2ccc(-n3c4c(c5ncnc(N)c53)COC4)cc2)c1` [Compound 47], the EC50 (with MV4-11 cells; in assay [1]) was under 100 nM each time. Also, the IC50 in assay [2] fell in the range of 100 to 1000 nM.
`Nc1ncnc2c3c(n(-c4ccc(NC(=O)c5ccccc5)cc4)c12)CCC3` [Compound 10]: the EC50 (in the assay on MV4-11 cells; in assay [1]) was over 1000 nM throughout. Moreover, the IC50 in assay [2] was over 1000 nM.
With `Nc1ncnc2c3c(n(-c4ccc(NC(=O)Nc5ccc(C(F)(F)F)cc5)cc4)c12)CCC3` [Compound 21], the concentration for a half-maximal effect (EC50) was 100 to 1000 nM in the assay with MV4-11 cells and under 100 nM in [1]. Besides, the IC50 in assay [2] was 100 to 1000 nM.
Consider `Nc1ncnc2c3c(n(-c4ccc(NC(=O)Nc5cccc(OC(F)F)c5)cc4)c12)CCC3` [Compound 57], for which the EC50 (in the assay with MV4-11 cells; in assay [1]) was under 100 nM throughout. Further, the IC50 in assay [2] is 100 to 1000 nM.
`COc1ccc(NC(=O)Nc2ccc(-n3c4c(c5ncnc(N)c53)CCC4)cc2)cc1C(F)(F)F` [Compound 55]: the EC50 in the assay on MV4-11 cells is under 100 nM; in [1] it was 100 to 1000 nM. For the same compound, in assay [2], the IC50 was 100 to 1000 nM.

Values taken from patent US9284318B2, “Protein kinase inhibitors” (Pharmascience, Inc., priority 2011, dated 2016).
